Measured values as given in patent US11110158B2, “Prostate-associated antigens and vaccine-based immunotherapy regimens” (Pfizer Inc., priority 2012, dated 2021).
Values joined by “and” are separate entries in the source; they are usually repeats but may differ in a detail not shown here. Identical values can stand only once.

System: human PSMA
Assay: IFNγ ELISPOT of PBMCs, PSMA vaccine with or without anti-CTLA-4 in Indian rhesus macaques, human PSMA recall antigens
Assay type: in vivo, rhesus macaque
From the text: Three groups of male Indian rhesus macaques, five to six (#1 to 5 or 6) per each test group, were immunized with a nucleic acid (SEQ ID NO: 10) that encodes a human PSMA modified antigen (SEQ ID NO: 9) delivered by adenovirus (1e11 V.P. injected intramuscularly) followed by 2 DNA immunizations (8 actuations/immunization, 4 actuations per each right and left side of the lower abdomen) by PMED with 6 and 9 week intervals respectively. Animals in Groups 2 and 3 additionally received bilateral intradermal injections of 3 mg of CpG (PF-03512676) subsequently after the PMED immunization in proximity to each inguinal draining lymph node. Group 2 also received intravenous injections of anti-CTLA-4 monoclonal antibody (CP-675, 206) at 10 mg/kg and group 3 received intradermal injections of anti-CTLA-4 monoclonal antibody (CP-675, 206) at 5 mg/kg in proximity to each left and right inguinal vaccine draining lymph node at the time of the second PMED immunization.
Peripheral blood samples were collected from each animal sixteen days after the last PMED immunization. Peripheral blood mononuclear cells (PBMCs) were isolated from the samples and were subjected to an IFNγ ELISPOT assay to measure the PSMA specific T cell responses. Briefly, 4e5 PBMCs from individual animals were plated per well with pools of PSMA specific peptides each at 2 ug/ml hPSMA ECD protein at 10 ug/ml, rhesus PSMA ECD protein at 10 ug/ml or nonspecific control peptides (human HER2 peptide pool) each at 2 ug/ml in IFNγ ELISPOT plates. The plates were incubated for 16 hrs at 37° C. and 5% CO2 and washed and developed after incubation as per manufacturer's instruction. The number of IFNγ spot forming cells (SFC) were counted by CTL reader. Each condition was performed in duplicates.
A capture antibody specific to IFNγ([…]BD Bioscience, #51-2525kc) is coated onto a polyvinylidene fluoride (PVDF) membrane in a microplate overnight at 4° C. The plate is blocked with serum/protein to prevent nonspecific binding to the antibody. After blocking, effector cells (such as splenocytes isolated from immunized mice or PBMCs isolated from rhesus macaques) and targets (such as PSMA peptides from peptide library, target cells pulsed with antigen specific peptides or tumor cells expressing the relevant antigens) are added to the wells and incubated overnight at 37° C. in a 5% CO2 incubator. Cytokine secreted by effector cells are captured by the coating antibody on the surface of the PVDF membrane. After removing the cells and culture media, 100 μl of a biotinylated polyclonal anti-humanIFNγ antibody was added to each of the wells for detection. The spots are visualized by adding streptavidin-horseradish peroxidase and the precipitate substrate, 3-amino-9-ethylcarbazole (AEC), to yield a red color spot as per manufacturer's (Mabtech) protocol. Each spot represents a single cytokine producing T cell.

[1] = Group 2, vaccine + CpG 3 mg intradermal + aCTLA4 10 mg/kg intravenous (IV), rhesus PBMCs, normalized to 1e6 PBMCs, one cell per animal, 10 mg/kg
[2] = Group 3, vaccine + CpG 3 mg intradermal + aCTLA4 5 mg/kg intradermal (ID) near each inguinal node, rhesus PBMCs, normalized to 1e6 PBMCs, ^ too numerous to count, 5 mg/kg

Substance: Tremelimumab: fully human IgG2 anti-CTLA-4 monoclonal antibody, CAS 745013-59-6, SEQ ID NOs:42 and 43
- PSMA specific IFNγ SFC, recall antigen H1 [1]: 71.3 SFC and 2.5 SFC and 1063.8 SFC and 147.5 SFC and 402.5 SFC
- PSMA specific IFNγ SFC, recall antigen H2 [1]: 292.5 SFC and 108.8 SFC and 82.5 SFC and 983.8 SFC and 573.8 SFC
- PSMA specific IFNγ SFC, recall antigen P1 [1]: 23.8 SFC and 0.0 SFC and 58.8 SFC and 25.0 SFC and 15.0 SFC
- PSMA specific IFNγ SFC, recall antigen P2 [1]: 57.5 SFC and 61.3 SFC and 41.3 SFC and 318.8 SFC and 312.5 SFC
- PSMA specific IFNγ SFC, recall antigen P3 [1]: 1.3 SFC and 0.0 SFC and 7.5 SFC and 27.5 SFC and 5.0 SFC
- PSMA specific IFNγ SFC, recall antigen hPSMA protein [1]: 278.8 SFC and 78.8 SFC and 1197.5 SFC and 1046.3 SFC and 707.5 SFC
- PSMA specific IFNγ SFC, recall antigen H2 [2]: ≥ 1236.3^ SFC and ≥ 1247.5^ SFC and ≥ 1248.8^ SFC and 1173.8 SFC
- PSMA specific IFNγ SFC, recall antigen hPSMA protein [2]: ≥ 1236.8^ SFC and ≥ 1247.5^ SFC and ≥ 1248.8^ SFC and ≥ 1242.5^ SFC
- IFNγ T cell responses to PSMA specific peptides and proteins (group 2: vaccine + CpG (PF-03512676) + systemic (intravenous) anti-CTLA-4 10 mg/kg, versus vaccine alone): modestly enhanced
- IFNγ T cell responses to PSMA specific peptides and proteins (group 3: vaccine + CpG + anti-CTLA-4 delivered locally by intradermal injections near the vaccine draining lymph node): more potent and significant enhancement of the response
